pIC50, pKd: −log10 of the molar value.
How the values were obtained:
Tyk2 kinase domain (JH1) = Tyk2 kinase domain (JH1) (Homo sapiens (Human), UniProt P29597); test: Tyk2 Radioactive Kinase Assay; type: biochemical; settings: 10 μM compound, ATP at 10 μM; read-out: TYK2_IC50_RB (% INH_@_10 uM) at 10.0 uM [% INH]
Experimental: (§1) The Tyk2 and JAK2 radioactive kinase assay measures the percent inhibition at the Tyk2 kinase domain (JH1) and the percent inhibition at the JAK2 kinase domain (JH1). Results of the assay are expressed as percent inhibition at 10 μM.

[1] = test system: IL-12 induced STAT4 phophorylation mediated by Tyk2/JAK2 (heterodimeric complex); test: IL-12 Induced pSTAT4 in Human PBMC; type: cell-based; settings: for inhibition at 0.05 µM: Homo sapiens, PBMC, 0.05 μM compound, 1.7 ng/mL IL-12, read-out: PBMC_IL-12-pSTAT4 (% Inhibition_Average_@0.05 uM) [%]; for pIC50: 1.7 ng/mL IL-12, read-out: PBMC_IL-12-pSTAT4 (IC50)
Experimental: Human PBMC are isolated from buffy coat and are stored frozen for assays as needed. […] 15 μl of compound or DMSO is added to the well at the desired concentrations and incubated at 1 hr at 37° C. 15 μl of stimulus (final concentration of 1.7 ng/mL IL-12) is added for 30 minutes prior to pSTAT4 and total STAT4 analysis using cell lysates prepared and analyzed by MSD reagents as per manufacturer protocol. The final DMSO concentration of compound in the assay is 0.1%.
The IL-12 Induced pSTAT4 assay evaluates the inhibition of IL-12 induced STAT4 phophorylation mediated by Tyk2/JAK2 (heterodimeric complex).

[2] = molecular target: human TYK2 (JH2domain-pseudokinase) (Homo sapiens (Human), UniProt P29597); test: TYK2 JH2 Domain Binding Assay (KINOMEscan); settings: read-out: hTYK2_JH2_Binding (Kd)
Sequence of human TYK2 (JH2domain-pseudokinase) (P29597 556-888): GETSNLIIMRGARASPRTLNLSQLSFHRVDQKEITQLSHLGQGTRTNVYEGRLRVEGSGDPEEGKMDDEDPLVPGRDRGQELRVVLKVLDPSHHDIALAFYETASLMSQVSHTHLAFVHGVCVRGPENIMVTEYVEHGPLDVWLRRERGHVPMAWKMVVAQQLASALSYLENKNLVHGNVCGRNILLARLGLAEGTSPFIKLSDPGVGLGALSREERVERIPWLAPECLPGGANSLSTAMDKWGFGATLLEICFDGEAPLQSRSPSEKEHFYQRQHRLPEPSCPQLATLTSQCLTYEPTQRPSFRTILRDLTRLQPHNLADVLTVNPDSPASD
Experimental: Binding constants for compounds of the present invention against the JH2 domain were determined by the following protocol for a KINOMEscan® assay (DiscoveRx). A fusion protein of a partial length construct of human TYK2 (JH2domain-pseudokinase) (amino acids G556 to D888 based on reference sequence NP_003322.3) and the DNA binding domain of NFkB was expressed in transiently transfected HEK293 cells. From these HEK 293 cells, extracts were prepared in M-PER extraction buffer (Pierce) in the presence of Protease Inhibitor Cocktail Complete (Roche) and Phosphatase Inhibitor Cocktail Set II (Merck) per manufacturers' instructions. The TYK2 (JH2domain-pseudokinase) fusion protein was labeled with a chimeric double-stranded DNA tag containing the NFkB binding site (5′-[…]-3′) fused to an amplicon for qPCR readout, which was added directly to the expression extract (the final concentration of DNA-tag in the binding reaction is 0.1 nM).
The liganded beads were blocked with excess biotin and washed with blocking buffer (SeaBlock (Pierce), 1% BSA, 0.05% Tween 20, 1 mM DTT) to remove unbound ligand and to reduce nonspecific binding.
Extracts were used directly in binding assays without any enzyme purification steps at a ≥10,000-fold overall stock dilution (final DNA-tagged enzyme concentration <0.1 nM). Extracts were loaded with DNA-tag and diluted into the binding reaction in a two step process. First extracts were diluted 1:100 in 1× binding buffer (PBS/0.05% Tween 20/10 mM DTT/0.1% BSA/2 μg/ml sonicated salmon sperm DNA) containing 10 nM DNA-tag. This dilution was allowed to equilibrate at room temperature for 15 minutes and then subsequently diluted 1:100 in 1× binding buffer. […] Kds were determined using an 11-point 3-fold compound dilution series with three DMSO control points. […] The compounds were then diluted directly into the assays such that the final concentration of DMSO was 0.9%. All reactions performed in polypropylene 384-well plates. Each was a final volume of 0.02 mL. Assays were incubated with shaking for 1 hour at room temperature. Then the beads were pelleted and washed with wash buffer (1×PBS, 0.05% Tween 20) to remove displaced kinase and test compound. […] The qPCR protocol consisted of a 10 minute hot start at 95° C., followed by 35 cycles of 95° C. for 15 seconds, 60° C. for 1 minute.
The compounds were then diluted directly into the assays such that the final concentration of DMSO was 0.9%. […] Kd measurements were performed in duplicate.
Binding constants (Kd values) were calculated with a standard dose-response curve using the Hill equation: […]
The Hill Slope was set to −1.

JAK3 kinase domain = JAK3 kinase domain (Homo sapiens (Human), UniProt P52333); test: JAK3 Radioactive Kinase Assay; type: biochemical; settings: 10 μM compound; read-out: JAK3_IC50_RB (% INH_@_10 uM) at 10.0 uM [% INH]
Sequence of JAK3 kinase domain (P52333 822-1111): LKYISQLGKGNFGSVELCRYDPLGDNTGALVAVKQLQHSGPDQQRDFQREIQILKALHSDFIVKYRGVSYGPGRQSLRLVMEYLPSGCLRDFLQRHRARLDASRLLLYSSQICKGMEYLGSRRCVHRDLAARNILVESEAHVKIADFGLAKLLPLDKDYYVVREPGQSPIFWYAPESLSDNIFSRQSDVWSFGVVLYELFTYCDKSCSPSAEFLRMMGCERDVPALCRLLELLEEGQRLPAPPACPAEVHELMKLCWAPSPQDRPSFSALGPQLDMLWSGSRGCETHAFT
Excerpt: (§2) Similar assays were run to measure the percent inhibition at the JAK1 and JAK3 kinase domains.

JAK2 kinase domain (JH1) = JAK2 kinase domain (JH1) (Homo sapiens (Human), UniProt O60674); test: JAK2 Radioactive Kinase Assay; type: biochemical; settings: 10 μM compound, ATP at 10 μM; read-out: JAK2_IC50_RB (% INH_@_10 uM) at 10.0 uM [% INH]
Sequence of JAK2 kinase domain (JH1) (O60674 849-1124): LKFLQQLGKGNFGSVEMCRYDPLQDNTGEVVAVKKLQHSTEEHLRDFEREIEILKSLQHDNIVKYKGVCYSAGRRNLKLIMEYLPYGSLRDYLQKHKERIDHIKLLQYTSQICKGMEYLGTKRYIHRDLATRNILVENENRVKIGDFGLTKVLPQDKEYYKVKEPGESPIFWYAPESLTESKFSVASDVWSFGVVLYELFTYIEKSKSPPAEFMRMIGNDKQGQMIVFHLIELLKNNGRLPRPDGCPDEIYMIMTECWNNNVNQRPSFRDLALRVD
Experimental: as §1

JAK1 kinase domain = JAK1 kinase domain (Homo sapiens (Human), UniProt P23458); test: JAK1 Radioactive Kinase Assay; type: biochemical; settings: 10 μM compound; read-out: JAK1_IC50_RB (% INH_@_10 uM) at 10.0 uM [% INH]
Sequence of JAK1 kinase domain (P23458 875-1153): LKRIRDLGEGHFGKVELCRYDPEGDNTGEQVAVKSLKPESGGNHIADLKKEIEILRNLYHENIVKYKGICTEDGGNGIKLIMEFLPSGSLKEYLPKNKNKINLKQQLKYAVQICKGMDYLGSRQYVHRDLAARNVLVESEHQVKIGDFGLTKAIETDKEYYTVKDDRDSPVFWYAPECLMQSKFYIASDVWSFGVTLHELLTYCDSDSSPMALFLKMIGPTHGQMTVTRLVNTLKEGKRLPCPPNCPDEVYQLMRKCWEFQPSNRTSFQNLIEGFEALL
Excerpt: as §2

Sequence of Tyk2 kinase domain (JH1) (P29597 897-1176): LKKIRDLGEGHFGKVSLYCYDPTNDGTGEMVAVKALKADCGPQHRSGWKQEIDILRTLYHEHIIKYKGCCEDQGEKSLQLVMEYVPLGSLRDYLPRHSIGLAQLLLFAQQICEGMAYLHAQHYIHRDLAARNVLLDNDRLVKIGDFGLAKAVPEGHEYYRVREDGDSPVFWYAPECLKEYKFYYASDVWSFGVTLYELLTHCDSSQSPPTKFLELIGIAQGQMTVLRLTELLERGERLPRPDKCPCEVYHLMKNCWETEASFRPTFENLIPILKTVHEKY

SMILES	inhibition at 10 µM (Tyk2 kinase domain (JH1))	pKd [2]	inhibition at 10 µM (JAK3 kinase domain)	inhibition at 10 µM (JAK2 kinase domain (JH1))	inhibition at 10 µM (JAK1 kinase domain)	pIC50 [1]	inhibition at 0.05 µM [1]
CNc1cc(Nc2cccn(-c3ccccn3)c2=O)nn2c(C(=O)NC3CC3)cnc12 [Compound I-4, N-cyclopropyl-8-(methylamino)-6-((2-oxo-2H-[1,2′-bipyridin]-3-yl)amino)imidazo[1,2-b]pyridazine-3-carboxamide]	< 50%	> 9.70	< 50%	< 50%	< 50%	–	< 50%
CNc1cc(-c2cn(C(C)C)c3ncccc23)nn2c(C(=O)N[C@@H]3C[C@@H]3F)cnc12 [Compound I-5, N-((1R,2S)-2-fluorocyclopropyl)-6-(1-isopropyl-1H-pyrrolo[2,3-b]pyridin-3-yl)-8-(methylamino)imidazo[1,2-b]pyridazine-3-carboxamide]	< 50%	> 9.70	< 50%	< 50%	< 50%	> 7.00	70 to 90%
CNc1cc(-c2cn(C(C)C)c3ncccc23)nn2c(C(=O)N[C@H]3CC[C@H]3O)cnc12 [Compound I-10, N-((1S,2R)-2-hydroxycyclobutyl)-6-(1-isopropyl-1H-pyrrolo[2,3-b]pyridin-3-yl)-8-(methylamino)imidazo[1,2-b]pyridazine-3-carboxamide]	< 50%	> 9.70	< 50%	< 50%	< 50%	> 7.00	70 to 90%

Continued, in another order:

inhibition at 10 µM (Tyk2 kinase domain (JH1))	pKd [2]	inhibition at 10 µM (JAK3 kinase domain)	inhibition at 10 µM (JAK2 kinase domain (JH1))	inhibition at 10 µM (JAK1 kinase domain)	pIC50 [1]	SMILES	inhibition at 0.05 µM [1]
< 50%	> 9.70	< 50%	< 50%	< 50%	> 7.00	CNc1cc(-c2cn(CCN3CCOCC3)c3ncccc23)nn2c(C(=O)N[C@@H]3C[C@@H]3F)cnc12 [Compound I-6, N-((1R,2S)-2-fluorocyclopropyl)-8-(methylamino)-6-(1-(2-morpholinoethyl)-1H-pyrrolo[2,3-b]pyridin-3-yl)imidazo[1,2-b]pyridazine-3-carboxamide]	< 50%
< 50%	> 9.70	< 50%	< 50%	< 50%	–	CNc1cc(-c2cn(CCN3CCOCC3)c3ncccc23)nn2c(C(=O)N[C@H]3CC[C@H]3O)cnc12 [Compound I-12, N-((1S,2R)-2-hydroxycyclobutyl)-8-(methylamino)-6-(1-(2-morpholinoethyl)-1H-pyrrolo[2,3-b]pyridin-3-yl)imidazo[1,2-b]pyridazine-3-carboxamide]	< 50%

— patent US11174264B2, “TYK2 inhibitors and uses thereof” (Nimbus Lakshmi, Inc., priority 2019, dated 2021)
